Here are results for 12 molecules from ChEMBL document CHEMBL1201862, “PubChem BioAssay data set” (2004).

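How tested: cells in 96-well plates exposed to compound for 48 hours at five concentrations. GI50 marks 50% less growth.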 Active and inactive are the calls of the source. No stated cut-off is given here; in the data, active = GI50 up to about 1.1 µM and inactive = higher.

What all share (test): growth of human tumour cells (NCI), 48 h
The test system of test [1] is T47D.
Test [2] deals with HCT-15.
For test [3], the system named is A549.
Test [4] concerns UACC-62.
Test [5] relates to A498.
The subject of test [6] is NCI/ADR-RES.
The test system of test [7] is SNB-19.
The subject of test [8] is DU-145.
In test [9] the test system is U-251.
Test [10] concerns MDA-N.
In test [11] the test system is NCI-H460.
Test [12] has as its system BT-549.
Test [13] has as its system COLO 205.
For test [14], the system named is NCI-H226.
The test system of test [15] is OVCAR-8.
Test [16] deals with HCC 2998.
In test [17] the test system is SK-OV-3.
For test [18], the system named is Hs-578T.
Test [19] deals with CAKI-1.
The test system of test [20] is NCI-H522.

For the molecule `C=CC1CCC[N+]1(CC(=O)OCC)Cc1ccccc1` (stereo unspecified), the GI50 in test [1] is > 100 µM (inactive); in test [2] it was above 100 µM; in test [3], > 100 µM (inactive); in test [4], > 100 µM (inactive); in [5], > 100 µM (inactive); in [6] it was > 100 µM (inactive). Moreover, the GI50 in test [7], in test [8], in test [9], in [10], in [11] and in test [12] was > 100 µM (inactive) each time. Also, the GI50 in [13], in test [14], in test [15], in test [16] and in [17] was > 100 µM (inactive) each time.
As to `CCOC(=O)c1c(-c2ccccc2)nc2c(OC)nccn12`, the GI50 in test [1] is 25.4 µM (inactive); in test [2] it was above 100 µM; in [18], > 100 µM (inactive); in test [3] it was > 100 µM (inactive); in test [19], > 100 µM (inactive); in [4] it was > 100 µM (inactive). Moreover, the GI50 in [6], in test [7], in test [8], in test [9], in test [11] and in test [12] was > 100 µM (inactive) each time. In addition, the GI50 in test [13], in test [14], in test [15], in test [16], in test [20] and in [17] was > 100 µM (inactive) throughout.
With `N#C/C(=C\c1ccccc1)c1nc(-c2cc3ccccc3oc2=O)cs1`, the GI50 in [1] is > 100 µM (inactive); in test [2], above 100 µM; in test [18], 48 µM (inactive); in test [3] it was > 100 µM (inactive); in test [19], > 100 µM (inactive); in test [4], 43.1 µM (inactive). Further, the GI50 in [6] was > 100 µM (inactive); in [7] it was 74.3 µM (inactive); in test [8] it was > 100 µM (inactive); in test [9], 41.6 µM (inactive); in [11], > 100 µM (inactive); in test [12], 27.3 µM (inactive). Besides, the GI50 is > 100 µM (inactive) in [13]; > 100 µM (inactive) in [14]; > 100 µM (inactive) in test [15]; > 100 µM (inactive) in [16]; > 100 µM (inactive) in test [20]; 72.8 µM (inactive) in test [17].
Regarding `O=C(O)CCCn1nnc2c(=O)[nH][nH]c(=O)c21`, the GI50 is above 100 µM in test [2]; > 100 µM (inactive) in [3]; > 100 µM (inactive) in test [19]; > 100 µM (inactive) in test [6]; > 100 µM (inactive) in test [7]; > 100 µM (inactive) in test [8]. Moreover, the GI50 in test [9], in test [10], in test [11], in test [12], in test [13] and in [15] was > 100 µM (inactive) each time. The GI50 in test [16] was > 100 µM (inactive).
In the case of `CCC1(O)C(=O)OCc2c1cc1n(c2=O)Cc2cc3cc4c(cc3nc2-1)OCO4` (stereo unspecified), the GI50 in test [1] is < 0.01 µM (active); in test [2], 0.0306 µM; in test [18] it was 0.857 µM (active); in [3] it was < 0.01 µM (active); in [19] it was < 0.01 µM (active); in test [4], < 0.01 µM (active). In addition, the GI50 is < 0.0103 µM (active) in test [5]; < 0.01 µM (active) in test [6]; < 0.01 µM (active) in [7]; < 0.01 µM (active) in test [8]; < 0.01 µM (active) in [9]; < 0.01 µM (active) in test [11]. Moreover, the GI50 in test [12] is 0.0163 µM (active); in test [13], 0.0713 µM (active); in [14], < 0.01 µM (active); in test [15], < 0.01 µM (active); in test [16] it was 0.0233 µM (active); in [20], < 0.01 µM (active). For the same molecule, the GI50 in test [17] was 0.0102 µM (active).
As to `CC(C)c1cc(=O)[nH]c2cc(N)ccc12`, the GI50 in test [1] was > 100 µM (inactive); in test [2], above 100 µM; in test [3], > 100 µM (inactive); in test [19], > 100 µM (inactive); in test [4] it was 93.8 µM (inactive); in [5] it was > 100 µM (inactive). The GI50 in test [6], in test [7], in [8], in test [9], in test [10] and in test [11] was > 100 µM (inactive) throughout. Also, the GI50 in [12], in test [13], in [14], in [15] and in test [16] was > 100 µM (inactive) throughout.
For the molecule `COc1ccc(-n2cnc3c2=NC(C)(C)NC=3C(N)=O)c(OC)c1`, the GI50 in [1] was > 100 µM (inactive); in test [2], above 100 µM; in test [18] it was > 100 µM (inactive); in test [3] it was > 100 µM (inactive); in test [19] it was > 100 µM (inactive); in [4], > 100 µM (inactive). Further, the GI50 in test [5], in [6], in test [7], in test [8], in test [9] and in test [10] was > 100 µM (inactive) throughout. Besides, the GI50 in test [11], in test [13], in test [14], in test [15], in [16] and in test [20] was > 100 µM (inactive) in each case. For the same molecule, in test [17], the GI50 was > 100 µM (inactive).
Take `Cc1nc2c(n1-c1ccc(Br)cc1)C(=O)c1ccccc1C2=O`: the GI50 was 19.3 µM (inactive) in test [1]; 1.04 µM in [2]; 7.78 µM (inactive) in test [18]; 6.93 µM (inactive) in test [3]; 12.5 µM (inactive) in test [19]; 2.82 µM (inactive) in test [4]. Also, the GI50 is > 49.8 µM (inactive) in test [5]; 5.78 µM (inactive) in test [6]; 3.6 µM (inactive) in test [7]; 58.2 µM (inactive) in test [8]; 3.54 µM (inactive) in test [9]; 6.84 µM (inactive) in test [10]. For the same molecule, the GI50 in test [11] is 1.44 µM (inactive); in test [13], 4.38 µM (inactive); in test [14], 51.6 µM (inactive); in [15], 6.52 µM (inactive); in [16] it was 14 µM (inactive); in [20], 10.4 µM (inactive). The GI50 in test [17] was 42.2 µM (inactive).
In the case of `CCCCCCOC(=O)C(N)Cc1ccc(OC)cc1` (stereo unspecified), the GI50 was > 100 µM (inactive) in test [1]; above 100 µM in test [2]; > 100 µM (inactive) in [18]; > 100 µM (inactive) in test [3]; > 100 µM (inactive) in [19]; > 100 µM (inactive) in test [4]. Also, the GI50 in test [6], in test [7], in test [8], in [9], in test [11] and in [12] was > 100 µM (inactive) throughout. Further, the GI50 in test [13], in test [14], in test [15], in test [20] and in [17] was > 100 µM (inactive) throughout.
As for `COc1cc(Cc2nccc3cc(OC)c(OC)cc23)c(C(C)=O)cc1OC`, the GI50 is 2.2 µM (inactive) in test [1]; > 300 µM (inactive) in test [3]; > 300 µM (inactive) in [19]; 53 µM (inactive) in test [4]; > 300 µM (inactive) in test [5]; > 300 µM (inactive) in [6]. The GI50 is 300 µM (inactive) in [7]; > 100 µM (inactive) in [8]; 2.54 µM (inactive) in test [9]; 28.2 µM (inactive) in test [10]; > 100 µM (inactive) in [12]; 18.4 µM (inactive) in test [13]. Further, the GI50 in [14] is 10.8 µM (inactive); in [16], 80.7 µM (inactive); in test [20] it was 10.2 µM (inactive); in test [17], 128 µM (inactive).
Regarding `COc1ccc(-c2nc3ncccn3c2-c2ccc(S(C)(=O)=O)cc2)cc1`, the GI50 was above 100 µM in [2]; > 100 µM (inactive) in [18]; > 100 µM (inactive) in test [3]; 24.9 µM (inactive) in test [19]; 53.6 µM (inactive) in test [4]; > 100 µM (inactive) in test [6]. Besides, the GI50 in test [7] is > 100 µM (inactive); in [8], > 100 µM (inactive); in test [9], > 100 µM (inactive); in test [11], 66.4 µM (inactive); in test [12], > 100 µM (inactive); in test [13], > 100 µM (inactive). Further, the GI50 in [15] was > 100 µM (inactive); in [17], 90.4 µM (inactive).
Consider `Clc1cc(C(c2cc(Cl)sc2Cl)c2cc(Cl)sc2Cl)c(Cl)s1`, for which the GI50 in test [1] was > 100 µM (inactive); in test [2], above 100 µM; in test [18], > 100 µM (inactive); in [3], > 100 µM (inactive); in [19] it was > 100 µM (inactive); in [4], > 100 µM (inactive). The GI50 in [5], in test [6], in test [7], in [8], in test [9] and in test [10] was > 100 µM (inactive) each time. The GI50 in test [11], in [13], in test [14], in test [15], in test [16] and in [20] was > 100 µM (inactive) throughout. In addition, the GI50 in test [17] is > 100 µM (inactive).
